In patent US9776992B2, “1-oxo-1,2-dihydroisoquinolin-7-yl-(5-substituted-thiophen-2-yl)-sulfonamide compounds, formulations containing those compounds, and their use as AICARFT inhibitors in the treatment of cancers” (Eli Lilly and Company, priority 2014, dated 2017):
pIC50: −log10 of the molar value.

Molecular target: AICARFT (Homo sapiens, UniProt P31939)
Assay: MS detection of ZMP in low folate media cultured NCI-H460 cells
Format: cell-based
Parameters: endogenous in cells; host or cells: NCI-H460
Details: for pIC50: Mean ± SEM, ZMP concentration by LC-MS, NCI-H460 cells in low folate media, 16 hours; for AICARFT inhibition in low folate media assay (in words): low levels of folate in the media, summary of Table 16
Description: Grow NCI-H460 cells in complete high folate RPMI media (ATCC #30-2001) until cellular confluence reaches ˜80%. Wash cells with PBS, trypsinize, resuspend cells in complete low folate RPMI media (Gibco #27016-021) and perform a cell count. Transfer 1.25×10^6 cells to a T225 flask containing complete low folate RPMI media (40 mL). Grow for seven days. Split cells again with complete low folate media if confluence surpasses 80%. Wash cells with PBS, trypsinize, resuspend cells in complete low folate RPMI media, and perform a cell count. Aliquot 10×10^6 cells in complete low folate media (1 mL)+5% DMSO per cryovial. Use a cell freezing apparatus to freeze cells in a slow and controlled manner in a −80° C. freezer. The next day, transfer cells to liquid nitrogen for long term storage. Thaw frozen cells from cryovial in 37° C. water bath, wash cells once with low folate assay medium: folate free RPMI 1640 medium (Gibco, #27016-021), Glucose (Sigma, #G5767), Hepes (Hyclone, #SH30237.01), Na Pyruvate (Hyclone, #Sh30239.01), 10% FBS (Hyclone, #SH30070.03). Adjust cells concentration to 250,000 cells/mL with medium, plate cells by adding 100 μl/well (25,000 cells/well) into Biocoat poly-D-lysine 96-well plate (BD, #35-4640), and incubate at 37° C. overnight with 5% CO2. Treat cells with 20 μl/well compound diluted in media containing 3% DMSO. Incubate at 37° C. for 16 hours with 5% CO2, then remove the medium and add 1× SureFire Lysis Buffer (50 μL) (PerkinElem, SureFire® Kit component) to each well and incubate at room temperature for 10 min with gentle shaking.
Cells grown in a 96-well plate have the media removed and are lysed in AlphaScreen® SureFire® lysis buffer. Standard curves containing ZMP, dUMP and AICAr at concentrations of 5-10,000 ng/mL are prepared in 40 mM ammonium acetate, pH 4. Aliquots (40 μL) of each standard or sample are combined in a deep 96-well plate with 160 μL of internal standard solution containing ^13C5-ZMP (custom synthesis) and ^13C5-AICAr (custom synthesis) at 100 ng/mL in 40 mM ammonium acetate, pH 4. A Beckman Biomek FX liquid handler is used to add 400 μL of DCM to each sample. Samples are sealed, vortexed for 5 minutes, and placed in the refrigerator for at least 30 minutes. The samples are centrifuged for 10 minutes at 4,000 rpm and 4° C. using an Eppendorf 5810R centrifuge, and the Biomek liquid handler is used to transfer 75 μL of the aqueous layer into a clean 96-well plate. The plates are sealed prior to analysis.
The LC-MS method utilizes a Shimadzu Prominence 20A HPLC system connected to an AB Sciex 5500™ or an AB Sciex 6500™ triple quadrupole mass spectrometer running Analyst® 2.1 software. Extracted samples are separated using a Thermo Hypercarb™ Javelin guard column (2.1×20 mm, […]) with an injection volume of 15 μL and a flow rate of 1 mL/minute. Mobile phase A is a 95:5 mixture of 50 mM ammonium formate, pH 4 and ACN. Mobile phase B is a 70:30 mixture of ACN and MeOH spiked with 0.3% formic acid and 2% concentrated ammonium hydroxide solution (v/v). The gradient is as follows: 0 minutes, 0% B; 0.25 minutes, 0% B; 2.00 minutes, 30% B; 2.01 minutes, 95% B; 3.50 minutes, 95% B, 3.51 minutes, 0% B, 5.00 minutes, stop.
The mass spectrometer is operated in positive ion TurboIonSpray® multiple reaction monitoring mode with a source temperature of 700° C. The precursor and fragment ions for each analyte are: ZMP (339→110), ^13C5-ZMP (344→110), dUMP (309→81), AICAr (259→127) and ^13C5-AICAr (264→127). Calibration curves are constructed by plotting analyte concentrations vs. analyte/internal standard peak area ratios and performing a linear fit of the data using a 1/concentration weighting with AB Sciex MultiQuant™ 2.1 software. Back-calculated ZMP concentrations are fit to a four-parameter logistic equation using ACTIVITYBASE 4.0 to determine IC50 values.

Sequence of AICARFT (P31939 whole entry): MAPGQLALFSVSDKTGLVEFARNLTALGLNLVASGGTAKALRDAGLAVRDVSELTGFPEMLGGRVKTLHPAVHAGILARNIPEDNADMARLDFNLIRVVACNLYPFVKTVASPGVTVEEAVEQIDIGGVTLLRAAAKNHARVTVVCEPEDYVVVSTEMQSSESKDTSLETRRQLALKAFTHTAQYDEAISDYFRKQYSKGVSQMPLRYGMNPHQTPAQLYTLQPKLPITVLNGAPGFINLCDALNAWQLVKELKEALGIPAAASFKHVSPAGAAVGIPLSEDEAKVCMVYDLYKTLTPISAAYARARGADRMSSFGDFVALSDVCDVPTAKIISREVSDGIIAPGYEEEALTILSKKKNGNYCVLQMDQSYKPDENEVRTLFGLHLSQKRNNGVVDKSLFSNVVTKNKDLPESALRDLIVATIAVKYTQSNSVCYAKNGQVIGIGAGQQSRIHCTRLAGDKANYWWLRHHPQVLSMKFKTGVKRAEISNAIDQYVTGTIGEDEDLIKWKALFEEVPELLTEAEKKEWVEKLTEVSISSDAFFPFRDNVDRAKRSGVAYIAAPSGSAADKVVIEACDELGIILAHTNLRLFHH

pIC50 | AICARFT inhibition in low folate media assay (in words) | Structure (SMILES)
7.40 | still inhibit AICARFT | O=c1[nH]ccc2cc(F)c(NS(=O)(=O)c3ccc([C@@H]4CC[C@@H](O)C4)s3)cc12 (single isomer, unassigned) [Example 46]
8.00 | still inhibit AICARFT | CCC1(C)CC(c2ccc(S(=O)(=O)Nc3cc4c(=O)[nH]ccc4cc3F)s2)=CNC1=O (single isomer, unassigned; isomer 1) [Example 84, 5-(5-Ethyl-5-methyl-6-oxo-1,4,5,6-tetrahydropyridin-3-yl)-N-(6-fluoro-1-oxo-1,2-dihydroisoquinolin-7-yl)thiophe2ne-2-sulfonamide, Isomer 1]
 | still inhibit AICARFT | O=c1[nH]ccc2cc(F)c(NS(=O)(=O)c3ccc(N4CC[C@@H](O)C4)s3)cc12 [Example 1, N-(6-Fluoro-1-oxo-1,2-dihydroisoquinolin-7-yl)-5-[(3R)-3-hydroxypyrrolidin-1-yl]thiophene-2-sulfonamide]
7.99 | still inhibit AICARFT | CC1(C)CC(c2ccc(S(=O)(=O)Nc3cc4c(=O)[nH]ccc4cc3F)s2)=CNC1=O [Example 81, 5-(5,5-Dimethyl-6-oxo-1,4,5,6-tetrahydropyridin-3-yl)-N-(6-fluoro-1-oxo-1,2-dihydroisoquinolin-7-yl)thiophene-2-sulfonamide]

Structure (SMILES) | pIC50 | AICARFT inhibition in low folate media assay (in words)
O=c1[nH]ccc2cc(F)c(NS(=O)(=O)c3ccc(N4C[C@@H](O)[C@@H](F)C4)s3)cc12 (single isomer, unassigned) [Example 33] | 8.10 | still inhibit AICARFT
O=c1[nH]ccc2cc(F)c(NS(=O)(=O)c3ccc(N4C[C@@H](O)C(F)(F)C4)s3)cc12 [Example 41, 5-[(4R)-3,3-difluoro-4-hydroxypyrrolidin-1-yl]-N-(6-fluoro-1-oxo-1,2-dihydroisoquinolin-7-yl)thiophene-2-sulfonamide] | 7.37 | still inhibit AICARFT
